{"source": "patent EP0567613B1", "about": "“COMPOSITIONS FOR THERAPY AND PREVENTION OF CANCER” (The Government of the United States of America, as …, priority 1991, dated 1993)", "key": {"[1]": {"tested_on": "4C8a10 cells (revertants of Haras-transformed NIH3T3 fibroblasts)", "experiment": "Tumor formation of cells pretreated in culture and injected s.c. into athymic nude mice", "assay_type": "in vivo", "conditions": "cells pretreated with NaPA 1.5 mg/ml; after 3 weeks", "source_text": "One-two weeks later the cells were transplanted subcutaneously into athymic mice.\nThe experimental model involved nonmalignant 4C8a10 cells (revertants of Haras-transformed NIH3T3 fibroblasts). […]\nFrederick Cancer Research Facility)."}, "myc": {"tested_on": "myc", "experiment": "Northern blot analysis of myc mRNA in HL-60", "assay_type": "cell-based, human", "conditions": "HL-60, NaPA 0.8 mg/ml", "experimental": "Cytoplasmic RNA (20 µg/lane) was subjected to Northern blot analysis using ^32P-labeled specific DNA probes. Ethidium bromide-stained […] indicates the relative amounts of total RNA in each lane. Figure A. Induction of a P2 expression in 10T1/2 cells. […] Figure B. Kinetics of myc inhibition and HLA-A induction in HL-60. […] Figure C. Dose-dependent and specificity of effect.\nIn HL-60, cell transformation has been linked to myc amplification and overexpression, and differentiation would typically require down regulation of myc expression. [Collins, S.J. The HL-60 promyelocytic leukemia cell line: Proliferation, differentiation, and cellular oncogene expression. Blood. 70:1233-1244 (1987)]. […] The 32P-labeled probes used were myc 3rd exon (Oncor) and HLA-A3 Hind III/EcoRI fragment. […] This occurred within 4 hours of treatment, preceding the phenotypic changes detectable by 48 hrs, approximately two cell cycles, after treatment. Similar kinetics of myc inhibition have been reported for other differentiation agents such as dimethyl sulfoxide, sodium butyrate, bromodeoxyuridine, retinoids, and 1,25-dihydroxyvitamin D3. […] It is believed that this may enhance the immunogenicity of tumors in vivo."}, "[2]": {"tested_on": "premalignant 4C8 and 10T1/2 cells", "experiment": "Prevention of 5-AzadC-induced malignant conversion in culture", "assay_type": "cell-based", "conditions": "NaPA 0.8-1.6 mg/ml, cells exposed to 5-AzadC", "source_text": "It is known that the treatment of premalignant 4C8 and 10T1/2 cells with carcinogens such as 5-AzadC produces malignant conversion of the respective cells. When 4C8 [Remold: et al., Cancer Research, 51:1-7 (1990)] and 10T1/2 cells were exposed to 5-AzadC, malignant conversion was evident in two days and two weeks, respectively."}, "DU145": {"tested_on": "DU145", "experiment": "Tumor cell growth / proliferation", "assay_type": "cell-based", "conditions": "Homo sapiens", "experimental": "(§1) Studies of depth were performed with two androgenindependent human prostate adenocarcinoma cell lines, PC3 and DU145, established from bone and brain metastases, respectively."}, "[3]": {"tested_on": "Prostate Adenocarcinoma PC3", "experiment": "Tumor cell growth / proliferation", "assay_type": "cell-based", "conditions": "Homo sapiens", "experimental": "as §1"}, "PC3 cells": {"tested_on": "PC3 cells", "experiment": "Growth on matrigel / in vitro invasion", "assay_type": "cell-based, human", "conditions": "800 µg/ml for 4 days, replated on matrigel, 8 days after plating", "experimental": "Pictures of controls, taken after 1 and 8 days (A and B, respectively), show the characteristic growth pattern of untreated cells, i.e., formation of net-like structures composed of actively replicating cells, which eventually degraded the matrigel and formed monolayers on the plastic surface beneath.\nResults scored 6-24 hours later.\nIt is known that PC3 cells are invasive in vitro and metastatic in recipient athymic mice. [Albini, A. et al. A rapid in vitro assay for quantitating the invasive potential of tumor cells. Cancer Res. 47:3239-3245 (1987)]. The invasiveness of PC3 cells which is indicative of their malignant phenotype can be assessed by their ability to degrade and cross tissue barriers such as matrigel, a reconstituted basement membrane. […] In Fig. 7, pictures of controls taken after 1 and 8 days, A and B, respectively, shown the characteristic growth pattern of untreated cells, i.e., formation of net-like structures composed of actively replicating cells which eventually degraded the matrigel and formed monolayers on the plastic surface beneath. […] The formation of small noninvasive colonies on top of the matrigel is indicative of loss of malignant properties following treatment. Results of the in vitro invasion assays correlate highly with the biological behavior of cells in vivo."}, "collagenase type IV": {"tested_on": "collagenase type IV", "experiment": "Northern blot analysis in PC3 cells", "assay_type": "cell-based, human", "conditions": "NaPA treated PC3 cells"}, "HLA-A mRNA": {"tested_on": "HLA-A mRNA", "experiment": "Northern blot analysis in PC3 cells", "assay_type": "cell-based, human", "conditions": "NaPA treated PC3 cells"}, "Prostatic Ca LaNCoP": {"tested_on": "Prostatic Ca LaNCoP", "experiment": "Tumor cell growth / proliferation", "assay_type": "cell-based", "conditions": "read-out: % Inhibition by NaPA 0.8 mg/ml"}, "Astrocytoma U343": {"tested_on": "Astrocytoma U343", "experiment": "Tumor cell growth / proliferation", "assay_type": "cell-based"}, "Fibrosarcoma V7T": {"tested_on": "Fibrosarcoma V7T", "experiment": "Tumor cell growth / proliferation", "assay_type": "cell-based", "source_text": "(§2) • # 7-10 For effective responses, the tumors may require much higher drug concentrations if used alone.\n(§3) A differential effect was seen also in ras-transformed fibrosarcoma V7T, when compared to the parental non-tumorigenic N1H3T3 cells."}, "Osteosarcoma HOS": {"tested_on": "Osteosarcoma HOS", "experiment": "Tumor cell growth / proliferation", "assay_type": "cell-based", "conditions": "read-out: % Inhibition by NaPA 0.8 mg/ml", "source_text": "as §2, §3"}, "Osteosarcoma KRIB": {"tested_on": "Osteosarcoma KRIB", "experiment": "Tumor cell growth / proliferation", "assay_type": "cell-based", "source_text": "as §2, §3"}, "Breast Cancer MCF-7": {"tested_on": "Breast Cancer MCF-7", "experiment": "Tumor cell growth / proliferation", "assay_type": "cell-based", "conditions": "Homo sapiens", "source_text": "as §2"}, "Fibrosarcoma RS485": {"tested_on": "Fibrosarcoma RS485", "experiment": "Tumor cell growth / proliferation", "assay_type": "cell-based", "conditions": "read-out: % Inhibition by NaPA 0.8 mg/ml", "source_text": "as §2"}, "[4]": {"tested_on": "Squamous Cancer of Head & Neck A431", "experiment": "Tumor cell growth / proliferation", "assay_type": "cell-based", "conditions": "Homo sapiens", "source_text": "as §2"}, "lung adenocarcinoma H661": {"tested_on": "lung adenocarcinoma H661", "experiment": "Tumor cell growth / proliferation", "assay_type": "cell-based", "conditions": "Homo sapiens, NCI-H661; read-out: concentration causing about 50% inhibition of growth"}, "[5]": {"tested_on": "intracellular glutathione", "experiment": "Induction of intracellular glutathione", "assay_type": "cell-based", "conditions": "normal or tumor cells, depending on growth conditions", "source_text": "It is known that intracellular glutathione plays a major role in detoxification and repair of cellular injury by chemical and physical carcinogens. […] Nontoxic agents that can induce glutathione are highly desirable since these are likely to protect cells from damage by a variety of chemical carcinogens and ionizing radiation."}, "[6]": {"conditions": "cited from earlier work"}, "[7]": {"conditions": "read-out: % Inhibition by NaPA 0.8 mg/ml, 0.8 mg/ml"}, "[8]": {"conditions": "read-out: concentration causing about 50% inhibition of growth"}}, "note": "Where two headings read alike, the source gives them in different places.", "data": [{"smiles": "O=C([O-])Cc1ccccc1.[Na+]", "note": "[NaPA, sodium phenylacetate]", "values": [{"measurement": "Tumor Formation Incidence", "setting": "[1]", "value": "0/8"}, {"measurement": "time to decline in the amounts of myc mRNA", "setting": "myc", "value": "≤ 4", "unit": "h"}, {"measurement": "appearance of the malignant phenotype (cell morphology, contact inhibition, anchorage dependent growth)", "setting": "[2]", "value": "prevented the appearance of the malignant phenotype"}, {"measurement": "IC50", "setting": "DU145; DU-145, growth arrest, read-out: IC50", "value": "600 to 800", "unit": "µg/mL"}, {"measurement": "inhibition at 800 µg/mL", "setting": "DU145; DU-145, read-out: % Inhibition by NaPA 0.8 mg/ml, 0.8 mg/ml", "value": "≥ 50", "unit": "%"}, {"measurement": "IC50", "setting": "DU145; DU-145, read-out: concentration causing about 50% inhibition of growth", "value": "400 to 800", "unit": "µg/mL"}, {"measurement": "IC50", "setting": "[3]", "value": "600 to 800", "unit": "µg/mL"}, {"measurement": "viability at 800 µg/mL", "setting": "[3]; PC-3", "value": "> 95", "unit": "%"}, {"measurement": "activity at 800 µg/mL", "setting": "[3]; PC-3, read-out: Growth", "value": 59.6, "unit": "%"}, {"measurement": "IC50", "setting": "[3]; PC-3, read-out: concentration causing about 50% inhibition of growth", "value": "400 to 800", "unit": "µg/mL"}, {"measurement": "inhibition at 800 µg/mL", "setting": "[3]; read-out: % Inhibition by NaPA 0.8 mg/ml", "value": "≥ 50", "unit": "%"}, {"measurement": "degradation of the matrigel barrier", "setting": "PC3 cells", "value": "failed to degrade the matrigel barrier"}, {"measurement": "expression of collagenase type IV", "setting": "collagenase type IV", "value": "inhibited the expression of collagenase type IV"}, {"measurement": "level of HLA-A mRNA", "setting": "HLA-A mRNA", "value": "an increase in the level of HLA-A mRNA"}, {"measurement": "inhibition at 800 µg/mL", "setting": "Prostatic Ca LaNCoP", "value": "> 50", "unit": "%"}, {"measurement": "IC50", "setting": "Astrocytoma U343; astrocytoma 343, read-out: concentration causing about 50% inhibition of growth", "value": "400 to 800", "unit": "µg/mL"}, {"measurement": "inhibition at 800 µg/mL", "setting": "Astrocytoma U343; read-out: % Inhibition by NaPA 0.8 mg/ml, U343, 0.8 mg/ml", "value": "≥ 50", "unit": "%"}, {"measurement": "inhibition at 800 µg/mL", "setting": "Fibrosarcoma V7T; [7]", "value": "≤ 30", "unit": "%"}, {"measurement": "IC50", "setting": "Fibrosarcoma V7T; [8]", "value": "1000 to 1500", "unit": "µg/mL"}, {"measurement": "inhibition at 800 µg/mL", "setting": "Osteosarcoma HOS", "value": "< 20", "unit": "%"}, {"measurement": "inhibition at 800 µg/mL", "setting": "Osteosarcoma KRIB; [7]", "value": "≤ 30", "unit": "%"}, {"measurement": "IC50", "setting": "Osteosarcoma KRIB; [8]", "value": "1000 to 1500", "unit": "µg/mL"}, {"measurement": "inhibition at 800 µg/mL", "setting": "Breast Cancer MCF-7; MCF7, read-out: % Inhibition by NaPA 0.8 mg/ml, MCF-7, 0.8 mg/ml", "value": "≤ 30", "unit": "%"}, {"measurement": "IC50", "setting": "Breast Cancer MCF-7; MCF7, breast tumor MCS-7, read-out: concentration causing about 50% inhibition of growth", "value": "1000 to 1500", "unit": "µg/mL"}, {"measurement": "inhibition at 800 µg/mL", "setting": "Fibrosarcoma RS485", "value": "≤ 30", "unit": "%"}, {"measurement": "inhibition at 800 µg/mL", "setting": "[4]; A-431, read-out: % Inhibition by NaPA 0.8 mg/ml, 0.8 mg/ml", "value": "< 30", "unit": "%"}, {"measurement": "IC50", "setting": "[4]; A-431, read-out: concentration causing about 50% inhibition of growth", "value": "1000 to 1500", "unit": "µg/mL"}, {"measurement": "IC50", "setting": "lung adenocarcinoma H661", "value": "400 to 800", "unit": "µg/mL"}, {"measurement": "induction of the activity of intracellular glutathione", "setting": "[5]", "value": "2-10 fold"}, {"measurement": "plasma levels", "setting": "[6]; children with urea cycle disorders, infusion 300-500 mg/kg/day", "value": "approximately 800 µg/ml"}, {"measurement": "plasma levels", "setting": "[6]; humans, intravenous infusion 250-500 mg/kg/day", "value": "600 to 800", "unit": "µg/mL"}]}]}
